Measured values taken from US20230287416A1, “COMBINATORY TREATMENT OF SMA WITH SARNA AND MRNA MODULATORS” (RACTIGEN THERAPEUTICS, priority 2020, published 2023).

System: SMN2 mRNA
Experiment: RT-qPCR of SMN2FL and SMN2 Δ7 mRNA in GM03813 cells
Type: cell-based, human
Conditions: GM03813, 72 h, alone or in combination at 10 nM, RT-qPCR (Example 10, FIG. 12A)
From the text: “GM03813 cells” refers to fibroblast cells provided by Coriell Institute for Medical Research. This cell line is described as SPINAL MUSCULAR ATROPHY, TYPE II; SMA2 SURVIVAL OF MOTOR NEURON 1, TELOMERIC; SMN1. The relevant gene is SMN1; the chromosomal location is 5q12.2-q13.3, the allelic variant is described as 1 exons 7 and 8 deleted, SPINAL MUSCULAR ATROPHY, TYPE I; and the identified mutation: is EX7-8DEL.
Seventy-two hours later, total cellular RNA was isolated from the treated cells and reverse transcribed into cDNA. SMN2 mRNA expression was assessed with RT-qPCR using primer pairs specific for SMN2FL or SMN2 Δ7. SMN2 mRNA expression was also assessed by semi-quantitative RT-PCR using a primer pair that amplifies both SMN2FL and SMN2 Δ7 followed by DdeI digestion (PCR/digestion). […] After digestion, both bands were reduced by 115 bp, resulting in two products: 392 bp (SMN2FL) and 338 bp (SMN2 Δ7) as shown on the gel of FIG. 3D. FIG. 3A-3D show dose-dependent changes in SMN2FL and SMNΔ7 mRNA as assessed by RT-qPCR and PCR/digestion respectively. FIG. 3E-3G are graphic plots of data from quantitating the intensity of bands in FIG. 3D.
SMA patient derived fibroblasts were obtained from Coriell Institute (Camden, N.J., USA), including GM00232 (SMA type I with 2 copies of SMN2 gene) and GM03813 (SMA type II with 3 copies of SMN2 gene). These cells were cultured at 5% C02 and 37° C. in modified MEM medium (Gibco, Thermo Fisher Scientific, Carlsbad, Calif.) supplemented with 15% bovine calf serum (Sigma-Aldrich), 1% NEAA (Gibco) and 1% penicillin/streptomycin (Gibco). To transfect oligonucleotides including saRNAs, siRNA and ASO, cells were seeded into 6-well plates at a density of 1×10^5 cells/well and were transfected with oligonucleotides at different concentrations using RNAiMax (Invitrogen, Carlsbad, Calif.) according to the reverse transfection protocol provided by the manufacturer for 72 hours (unless otherwise specified). For Risdiplam treatment of cells, Risdiplam (HY-109101, MedChem Express Company, Monmouth Junction, N.J., USA) dissolved in DMSO was added directly to cells at desired concentration for 72 hours unless specified otherwise.
For RNA isolation from cultured cells, total cellular RNA was isolated from treated cells using an RNeasy Plus Mini kit (Qiagen, Hilden, Germany) according to its manual. To isolated RNA from animal tissues, tissues were harvested and stored at RNA later (AM7021, Thermo Fisher). Total RNA was then isolated using MagPure Total RNA Micro LQ kit (Magen, R6621, China) by auto-pure96 machine (ALLSHENG, China). The resultant RNA (1 μg) was reverse transcribed into cDNA by using a PrimeScript RT kit containing gDNA Eraser (Takara, Shlga, Japan). The resultant cDNA was amplified in an ABI 7500 Fast Real-time PCR System (Applied Biosystems; Foster City, Calif.) using SYBR Premix Ex Taq 11 (Takara, Shlga, Japan) reagents and primers which specifically amplified full-length (SMN2FL) or A7 SMN2 mRNA (SMN2 Δ7) (FIG. 1). The reaction conditions were: 95° C. for 3 seconds (1 cycle) and 60° C. for 30 seconds (40 cycles). Amplification of TBP gene served as an internal control.

Row | Substance | SMN2FL mRNA fold change | SMN2 Δ7 mRNA fold change
1 | DS06-0067: saRNA targeting SMN2 promoter at -293; SEQ ID NO: 480/481 (chain 1 CACUGGAGUUCGAGACGAGTT; chain 2 CUCGUCUCGAACUCCAGUGTT; chemistry not given here) | 1.3 fold | 2.4 fold
2 | DS06-0031: saRNA targeting SMN2 promoter at -1266; SEQ ID NO: 478/479 (chain 1 UUGUACACUUGGUCAACAUTT; chain 2 AUGUUGACCAAGUGUACAATT; chemistry not given here) | 0.9 fold | 1.9 fold
